For eleven compounds, pKa results are on record in the pKa sets of Baltruschat and Czodrowski (2020).

Each structure is given as a SMILES string.

Turning to `CN(C)[C@@H]1C(O)=C(C(N)=O)C(=O)[C@@]2(O)C(O)=C3C(=O)c4c(O)cccc4[C@@](C)(O)C3[C@H](O)C12` (stereo partly specified), the pKa – broadly, the negative logarithm of the acid dissociation constant – was 7.32.
In turn, `O=C(O)c1cccnc1` showed a pKa of 2.05.
The compound `COc1ccc2c3c1O[C@H]1[C@@H](O)C=CC4[C@@H](C2)NCC[C@@]341` (stereo partly specified) yielded a pKa of 9.23.
Regarding `CCCCCCCC(=O)OC(CC(=O)O)C[N+](C)(C)C` (stereo unspecified), the pKa was determined as 3.6.
The compound `CCCCCCCCCC(=O)OC(CC(=O)O)C[N+](C)(C)C` (stereo unspecified) gave a pKa of 3.65.
Consider `Nc1ccc(C(=O)O)cc1`, for which the pKa stood at 4.87.
Still for that read-out and setting: the result for `CCCC(=O)OC(CC(=O)O)C[N+](C)(C)C` (stereo unspecified) reads 3.56.

The source holds these as a separate data set.
In turn, `O=C(c1ccccc1)c1ccc2n1CCC2C(=O)O` (stereo unspecified) had a pKa of 3.5.
Still for that read-out and setting: the result for `Cc1ccc(C(=O)c2ccc(CC(=O)O)n2C)cc1` reads 3.5; that for `CCn1nc(C(=O)O)c(=O)c2cc3c(cc21)OCO3`, 4.7.
`Cc1cccc(Nc2ccccc2C(=O)O)c1C` had a pKa of 4.5.
